The target of experiment [1] is Replicase polyprotein 1ab (Severe acute respiratory syndrome coronavirus 2, UniProt P0DTD1). Description: Inhibition of 6-his taggedSARS-Cov-2 3-CL protease using Dabcyl-KNSTLQSGLRKE-Edans as substrate preincubated for 60 mins followed by substrate addition by fluorescence based analysis.
For a further experiment, the system named is Human coronavirus OC43. Nature of the experiment: Antiviral activity against HCoV OC43 infected in human Huh-7 cells assessed as inhibition of viral replication of CPE assay. In kind it is functional, organism-based. To be noted: Betacoronavirus 1, Huh-7.
Another experiment has as its system Huh-7. Nature of the experiment: Cytotoxicity against human Huh-7 cells assessed as reduction in cell viability measured after 7 days by celltiter-glo assay. To be noted: Huh-7, 168 h, time 7 day. In kind it is functional. (Cellular ATP, detected with luciferase, serves as a proxy for viable cell number.)
Experiment [2] deals with Replicase polyprotein 1ab (Severe acute respiratory syndrome coronavirus 2) (UniProt P0DTD1). Description: Binding affinity to 6-his taggedSARS-Cov-2 3-CL protease assessed as Kinact/Ki using Dabcyl-KNSTLQSGLRKE-Edans as substrate measured for 120 mins.

For the molecule `CC(C)C(=O)N[C@H](C(=O)N1C[C@H]2[C@@H]([C@H]1C(=O)N[C@H](C#N)C[C@@H]1CCNC1=O)C2(C)C)c1cc(Cl)c(OCCN(C)C)c(Cl)c1`, in experiment [1], the IC50 – broadly, the concentration at which inhibition is half-maximal – came to 206 nM. `CC(=O)/C(C)=C\[C@H](C[C@@H]1CCNC1=O)NC(=O)[C@@H]1[C@@H]2[C@H](CN1C(=O)[C@@H](NC(=O)C(F)(F)F)C(C)(C)C)C2(C)C` came in with an IC50 in experiment [1] of 50.7 nM. As for `CC(C)(C)[C@H](NC(=O)C(F)(F)F)C(=O)N1C[C@H]2[C@@H]([C@H]1C(=O)N[C@H](C#N)C[C@@H]1CCNC1=O)C2(C)C` [NIRMATRELVIR], the EC50 (commonly the concentration needed to bring the measured effect to its halfway point) with Human coronavirus OC43 turned out to be 72 nM. Also, the CC50 (as a rule, the concentration that lowers cell viability or growth by half) in the experiment on Huh-7 is over 10000 nM. In turn, `CC(C)(C)[C@H](NC(=O)C(F)(F)F)C(=O)N1C[C@H]2[C@@H]([C@H]1C(=O)N[C@H](/C=C/C(N)=O)C[C@@H]1CCNC1=O)C2(C)C` came in with an IC50 in experiment [1] of 23.4 nM. Also, the EC50 with Human coronavirus OC43 was 9070 nM. Moreover, the CC50 with Huh-7 was over 10000 nM. The K in experiment [2] was determined as 9750 M⁻¹ s⁻¹. In turn, `CN(C)CCOc1c(Cl)cc([C@H](NC(=O)C(F)(F)F)C(=O)N2C[C@H]3[C@@H]([C@H]2C(=O)N[C@H](C#N)C[C@@H]2CCNC2=O)C3(C)C)cc1Cl` displayed an IC50 in experiment [1] of 631 nM. `CN(C)CCOc1c(Cl)cc(C(NC(=O)C(C)(C)F)C(=O)N2C[C@H]3[C@@H]([C@H]2C(=O)N[C@H](C#N)C[C@@H]2CCNC2=O)C3(C)C)cc1Cl` (stereo not given in full) displayed an IC50 in experiment [1] of 249 nM. Against the preceding molecule, the IC50 is about 2.5-fold lower. On to `CN(C)CCOc1c(Cl)cc([C@H](NC(=O)C(F)F)C(=O)N2C[C@H]3[C@@H]([C@H]2C(=O)N[C@H](C#N)C[C@@H]2CCNC2=O)C3(C)C)cc1Cl`, for which, in experiment [1], the IC50 stood at 376 nM. Take `COC(=O)/C=C/[C@H](C[C@@H]1CCNC1=O)NC(=O)[C@@H]1[C@@H]2[C@H](CN1C(=O)[C@@H](NC(=O)C(F)(F)F)C(C)(C)C)C2(C)C`: in experiment [1], the IC50 was 28.9 nM. Also, the EC50 in the experiment on Human coronavirus OC43 was found to be 97 nM. The CC50 in the experiment with Huh-7 is over 10000 nM. For the same molecule, in experiment [2], the K came to 17200 M⁻¹ s⁻¹.

Values taken from ChEMBL document CHEMBL6092138, “Discovery of the potent covalent inhibitor with an acrylate warhead for SARS-CoV-2 3CL protease” (Bioorg Med Chem Lett, 2024).
